Source: ChEMBL document CHEMBL1157533 (J Med Chem, 2008)

Assays:
[1] = target: Beta-1 adrenergic receptor (Homo sapiens, UniProt P08588); assay: Agonist activity at human recombinant beta-1 adrenergic receptor expressed in CHO cells assessed as cAMP accumulation by enzyme immuno assay; format: functional, cell-based
[2] = target: Beta-3 adrenergic receptor (Homo sapiens, UniProt P13945); assay: Agonist activity at human recombinant beta3 adrenergic receptor expressed in CHO cells assessed as cAMP accumulation by enzyme immuno assay; format: functional, cell-based
[3] = target: Beta-2 adrenergic receptor (Homo sapiens, UniProt P07550); assay: Agonist activity at human recombinant beta2 adrenergic receptor expressed in CHO cells assessed as cAMP accumulation by enzyme immuno assay; format: functional, cell-based
[4] = Terminal half life in Beagle dog at 0.1 mg/kg, iv by cassette assay; format: ADME, organism-based, Canis lupus familiaris; parameters: dose 0.1 mg/kg, route intravenous; details: in vivo, read-out: beta t1/2 (converted)
[5] = Bioavailability in Beagle dog at 0.1 mg/kg, po by cassette assay; format: ADME, organism-based, Canis lupus familiaris; details: in vivo
[6] = Volume of distribution at steady state in Beagle dog at 0.1 mg/kg, iv by cassette assay; format: ADME, organism-based, Canis lupus familiaris; parameters: dose 0.1 mg/kg, route intravenous; details: in vivo, read-out: Vdss
[7] = AUC (0 to 24 hrs) in Beagle dog at 0.1 mg/kg, iv by cassette assay; format: ADME, organism-based, Canis lupus familiaris; parameters: time < 24 hr, dose 0.1 mg/kg, route intravenous; details: plasma
[8] = Total clearance in Beagle dog at 0.1 mg/kg, iv by cassette assay; format: ADME, organism-based, Canis lupus familiaris; parameters: dose 0.1 mg/kg, route intravenous; details: in vivo
[9] = AUC (0 to 2 hrs) in Beagle dog at 0.1 mg/kg, po by cassette assay; format: ADME, organism-based, Canis lupus familiaris; parameters: time < 2 hr, dose 0.1 mg/kg, route oral; details: plasma
[10] = Bioavailability in dog; format: ADME, organism-based, Canis lupus familiaris; details: in vivo
[11] = Metabolic stability assessed as intrinsic clearance in dog liver microsome in presence of NADPH-generating system; format: ADME, Canis lupus familiaris; details: liver microsomes
[12] = Bioavailability in dog at 0.1 mg/kg, po by cassette assay; format: ADME, organism-based, Canis lupus familiaris; details: in vivo
[13] = Terminal half life in dog at 0.1 mg/kg, iv by cassette assay; format: ADME, organism-based, Canis lupus familiaris; parameters: dose 0.1 mg/kg, route intravenous; details: in vivo, read-out: beta t1/2 (converted)
[14] = Total clearance in dog at 0.1 mg/kg, iv by cassette assay; format: ADME, organism-based, Canis lupus familiaris; parameters: dose 0.1 mg/kg, route intravenous; details: in vivo
[15] = AUC (0 to 24 hrs) in dog at 0.1 mg/kg, po by cassette assay; format: ADME, organism-based, Canis lupus familiaris; parameters: time < 24 hr, dose 0.1 mg/kg, route oral; details: plasma
[16] = Cmax in dog at 0.1 mg/kg, po by cassette assay; format: ADME, organism-based, Canis lupus familiaris; parameters: dose 0.1 mg/kg, route oral; details: in vivo
[17] = Protein binding in Beagle dog serum; format: ADME, cell-free, Canis lupus familiaris; details: read-out: PPB (converted)

Chain of Beta-3 adrenergic receptor (P13945 whole entry): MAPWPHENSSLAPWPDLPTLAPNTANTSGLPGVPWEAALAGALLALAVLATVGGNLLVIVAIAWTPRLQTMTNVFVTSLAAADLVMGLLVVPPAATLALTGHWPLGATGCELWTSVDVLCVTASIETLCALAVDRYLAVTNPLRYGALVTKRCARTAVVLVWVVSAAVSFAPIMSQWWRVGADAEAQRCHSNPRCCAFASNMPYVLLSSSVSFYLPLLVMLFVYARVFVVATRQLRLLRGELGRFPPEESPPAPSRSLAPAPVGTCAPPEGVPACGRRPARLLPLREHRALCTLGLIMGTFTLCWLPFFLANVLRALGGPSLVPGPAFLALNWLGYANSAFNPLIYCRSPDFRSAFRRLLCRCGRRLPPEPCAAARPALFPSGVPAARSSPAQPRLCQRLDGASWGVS
Chain of Beta-1 adrenergic receptor (P08588 whole entry): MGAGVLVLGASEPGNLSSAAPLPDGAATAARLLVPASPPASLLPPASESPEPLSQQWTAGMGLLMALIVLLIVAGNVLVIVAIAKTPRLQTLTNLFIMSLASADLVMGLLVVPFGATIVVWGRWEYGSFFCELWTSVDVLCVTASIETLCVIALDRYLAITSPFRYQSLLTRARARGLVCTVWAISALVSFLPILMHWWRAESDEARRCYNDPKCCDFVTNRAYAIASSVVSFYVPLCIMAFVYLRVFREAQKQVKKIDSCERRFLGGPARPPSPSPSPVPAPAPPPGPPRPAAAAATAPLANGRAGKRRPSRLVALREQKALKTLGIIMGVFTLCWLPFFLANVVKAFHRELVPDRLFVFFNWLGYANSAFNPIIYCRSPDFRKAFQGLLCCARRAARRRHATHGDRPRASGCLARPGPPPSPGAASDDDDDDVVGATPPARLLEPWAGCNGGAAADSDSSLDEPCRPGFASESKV
Chain of Beta-2 adrenergic receptor (P07550 whole entry): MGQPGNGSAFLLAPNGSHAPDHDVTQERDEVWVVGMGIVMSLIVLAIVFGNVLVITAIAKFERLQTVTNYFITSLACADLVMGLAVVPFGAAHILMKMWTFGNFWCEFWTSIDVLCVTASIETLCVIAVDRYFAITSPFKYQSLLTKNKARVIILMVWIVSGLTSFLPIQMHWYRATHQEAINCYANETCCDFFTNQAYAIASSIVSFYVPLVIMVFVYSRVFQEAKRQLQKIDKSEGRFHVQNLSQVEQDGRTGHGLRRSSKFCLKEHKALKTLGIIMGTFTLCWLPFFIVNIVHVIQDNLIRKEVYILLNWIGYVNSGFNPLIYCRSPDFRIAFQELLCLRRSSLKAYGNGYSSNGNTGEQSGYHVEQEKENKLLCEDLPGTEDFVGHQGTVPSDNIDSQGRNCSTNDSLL

Structure (SMILES): CC(C)Oc1cc(-c2ccc(OCCNC[C@H](O)c3cccc(Cl)c3)cc2)ccc1C(=O)O
- EC50 [1]: 84 nM
- EC50 [2]: 0.5 nM

Structure (SMILES): CC(C)Oc1cc(-c2ccc(CCNC[C@H](O)c3ccc(O)c(NS(C)(=O)=O)c3)cc2)ccc1C(=O)O
- EC50 [1]: 150 nM
- EC50 [2]: 0.26 nM

Structure (SMILES): CC(C)Cc1cc(-c2ccc(CCNC[C@H](O)c3cccnc3)cc2)ccc1C(=O)O
- EC50 [1]: > 1000 nM
- EC50 [2]: 0.26 nM

Structure (SMILES): CCCOc1cc(-c2ccc(CCCNC[C@H](O)c3cccc(Cl)c3)cc2)ccc1C(=O)O
- EC50 [1]: 180 nM
- EC50 [2]: 0.7 nM

Structure (SMILES): CC(C)Oc1cc(-c2ccc(CCNC[C@H](O)c3cccc(F)c3)cc2)ccc1C(=O)O
- EC50 [1]: 320 nM
- EC50 [2]: 2.1 nM

Structure (SMILES): C[C@H](Cc1ccc(-c2ccc(C(=O)O)cc2)cc1)NC[C@H](O)c1ccccc1
- EC50 [1]: 22 nM
- EC50 [3]: > 1000 nM
- EC50 [2]: 0.3 nM

Structure (SMILES): CCOc1cc(-c2ccc(C[C@@H](C)NC[C@H](O)c3ccccc3)cc2)ccc1C(=O)O
- half-life [4]: 9.9 h
- bioavailability [5]: 73%
- Vd [6]: 1.9 L/kg
- EC50 [1]: 62 nM
- AUC(0-t) at 24 h [7]: 477 ng·h/mL
- clearance [8]: 3.5 mL/min/kg
- AUC(0-t) at 2 h [9]: 350 ng·h/mL
- EC50 [2]: 0.31 nM

Structure (SMILES): COc1cc(-c2ccc(CCNC[C@H](O)c3cccc(Cl)c3)cc2)ccc1C(=O)O
- bioavailability [10]: 58%

Structure (SMILES): C[C@H](Cc1ccc(-c2ccc(C(=O)O)cc2)cc1)NC[C@H](O)c1cccc(Cl)c1
- EC50 [1]: 13 nM
- EC50 [2]: 0.18 nM

Structure (SMILES): CC(C)Cc1cc(-c2ccc(OCCNC[C@H](O)c3cccc(Cl)c3)cc2)ccc1C(=O)O
- EC50 [1]: 15 nM
- EC50 [2]: 0.68 nM

Structure (SMILES): C[C@H](Cc1ccc(-c2ccc(C(=O)O)c(OC3CCCCC3)c2)cc1)NC[C@H](O)c1ccccc1
- half-life [4]: 0.35 h
- bioavailability [5]: 0%
- CLint scaled [11]: < 0.1 mL/min/kg
- Vd [6]: 1.13 L/kg
- EC50 [1]: 28 nM
- AUC(0-t) at 24 h [7]: 24.3 ng·h/mL
- clearance [8]: 68.9 mL/min/kg
- EC50 [2]: 0.042 nM

Structure (SMILES): O=C(O)c1ccc(-c2ccc(CCNC[C@H](O)c3cccc(Cl)c3)cc2)cc1OC1CCCCC1
- bioavailability [10]: 0%

Structure (SMILES): CC(C)Oc1cc(-c2ccc(CCNC[C@H](O)c3ccc(Cl)cc3)cc2)ccc1C(=O)O
- EC50 [1]: 500 nM
- EC50 [2]: 2.4 nM

Structure (SMILES): CC(C)Oc1cc(-c2ccc(CCNC[C@H](O)c3ccc(N)cc3)cc2)ccc1C(=O)O
- EC50 [1]: > 1000 nM
- EC50 [2]: 2.6 nM

Structure (SMILES): CC(C)COc1cc(-c2ccc(C[C@@H](C)NC[C@H](O)c3ccccc3)cc2)ccc1C(=O)O
- half-life [4]: 17.7 h
- bioavailability [5]: 0.4%
- Vd [6]: 30.8 L/kg
- EC50 [1]: 130 nM
- AUC(0-t) at 24 h [7]: 44.5 ng·h/mL
- clearance [8]: 39 mL/min/kg
- AUC(0-t) at 2 h [9]: 0.2 ng·h/mL
- EC50 [2]: 0.041 nM

Structure (SMILES): CC(C)Oc1cc(-c2ccc(C[C@H](CO)NC[C@H](O)c3ccccc3)cc2)ccc1C(=O)O
- EC50 [1]: > 1000 nM
- EC50 [2]: 7.4 nM

Structure (SMILES): CC(C)COc1cc(-c2ccc(OCCNC[C@H](O)c3cccc(Cl)c3)cc2)ccc1C(=O)O
- EC50 [1]: 110 nM
- EC50 [2]: 0.32 nM

Structure (SMILES): CC(C)Cc1cc(-c2ccc(OCCNC[C@H](O)c3ccc(N)nc3)cc2)ccc1C(=O)O
- bioavailability [12]: 34.8%
- half-life [13]: 9.5 h
- clearance [14]: 14.2 mL/min/kg
- AUC(0-t) at 24 h [15]: 38.2 ng·h/mL
- EC50 [1]: 12 nM
- EC50 [2]: 0.059 nM
- Cmax [16]: 11.6 ng/mL

Structure (SMILES): CCCOc1cc(-c2ccc(OCCNC[C@H](O)c3ccccc3)cc2)ccc1C(=O)O
- EC50 [1]: 210 nM
- EC50 [2]: 1.2 nM

Structure (SMILES): CC(C)Oc1cc(-c2ccc(CCNC[C@H](O)c3ccccc3)cc2)ccc1C(=O)O
- fraction unbound [17]: 0.14

Structure (SMILES): Nc1ccc([C@@H](O)CNCCc2ccc(-c3ccc(C(=O)O)c(OC4CCCCC4)c3)cc2)cn1
- EC50 [1]: 39 nM
- EC50 [3]: 1100 nM
- EC50 [2]: 0.035 nM
